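Briefly, cells in 96-well plates were exposed to five compound concentrations for 48 h, and endpoints were estimated by linear interpolation. GI50 marks 50% less growth. At the TGI there is no net growth.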
Experiments:
Test in all cases: inhibition of tumour cell growth, NCI panel, 48 h
A498 renal = system: A498 renal
IGROV1 ovarian = system: IGROV1 ovarian
TK-10 renal = system: TK-10 renal
DU-145 prostate = system: DU-145 prostate
LOX IMVI melanoma = system: LOX IMVI melanoma
NCI-H522 lung = system: NCI-H522 lung
NCI-H460 lung = system: NCI-H460 lung
UACC-257 melanoma = system: UACC-257 melanoma
HOP-62 NSCLC = system: HOP-62 NSCLC
SK-MEL-5 melanoma = system: SK-MEL-5 melanoma
T-47D breast = system: T-47D breast
U251 CNS = system: U251 CNS
HCC-2998 colon = system: HCC-2998 colon
786-0 renal = system: 786-0 renal
OVCAR-8 ovarian = system: OVCAR-8 ovarian
SNB-19 CNS = system: SNB-19 CNS
HS 578T breast = system: HS 578T breast
NCI/ADR-RES ovarian = system: NCI/ADR-RES ovarian
MDA-MB-435 = system: MDA-MB-435
NCI-H23 lung = system: NCI-H23 lung
RPMI-8226 leukemia = system: RPMI-8226 leukemia
SW-620 colon = system: SW-620 colon
OVCAR-4 ovarian = system: OVCAR-4 ovarian
RXF 393 renal = system: RXF 393 renal
PC-3 prostate = system: PC-3 prostate
MCF7 breast = system: MCF7 breast
HCT-116 colon = system: HCT-116 colon

For O=[N+]([O-])c1ccc(N/N=C/c2ccccc2O)nc1, the GI50 (A498 renal) was 63.4 µM, the TGI (A498 renal) was greater than 100 µM and the GI50 (IGROV1 ovarian) was 2700 nM. The TGI (IGROV1 ovarian) was greater than 100 µM, the GI50 (TK-10 renal) was 3.43 µM and the TGI (TK-10 renal) was greater than 100 µM. The GI50 (DU-145 prostate) was 1350 nM, the TGI (DU-145 prostate) was greater than 100 µM and the GI50 (LOX IMVI melanoma) was 920 nM. The TGI (LOX IMVI melanoma) was greater than 100 µM, the GI50 (NCI-H522 lung) was 289 nM and the TGI (NCI-H522 lung) was greater than 100 µM. The GI50 (NCI-H460 lung) was 1020 nM, the TGI (NCI-H460 lung) was greater than 100 µM and the GI50 (UACC-257 melanoma) was 3.13 µM. For the same molecule, the TGI (UACC-257 melanoma) was 25 µM, the GI50 (HOP-62 NSCLC) was 4.5 µM and the TGI (HOP-62 NSCLC) was greater than 100 µM. It also gave a GI50 (SK-MEL-5 melanoma) of 1610 nM, a TGI (SK-MEL-5 melanoma) greater than 100 µM and a GI50 (T-47D breast) of 3.2 µM. It also gave a TGI (T-47D breast) greater than 100 µM, a GI50 (U251 CNS) of 1690 nM and a TGI (U251 CNS) greater than 100 µM. It also gave a GI50 (HCC-2998 colon) of 1460 nM, a TGI (HCC-2998 colon) greater than 100 µM and a GI50 (786-0 renal) of 3.03 µM. The TGI (786-0 renal) was greater than 100 µM, the GI50 (OVCAR-8 ovarian) was 407 nM and the TGI (OVCAR-8 ovarian) was 51.2 µM. The GI50 (SNB-19 CNS) was 3.88 µM, the TGI (SNB-19 CNS) was greater than 100 µM and the GI50 (HS 578T breast) was greater than 100 µM. It also gave a TGI (HS 578T breast) greater than 100 µM, a GI50 (NCI/ADR-RES ovarian) of 373 nM and a TGI (NCI/ADR-RES ovarian) greater than 100 µM. For the same molecule, the GI50 (MDA-MB-435) was 3.03 µM, the TGI (MDA-MB-435) was greater than 100 µM and the GI50 (NCI-H23 lung) was 2450 nM. The TGI (NCI-H23 lung) was greater than 100 µM, the GI50 (RPMI-8226 leukemia) was 860 nM and the TGI (RPMI-8226 leukemia) was greater than 100 µM. The GI50 (SW-620 colon) was 1140 nM, the TGI (SW-620 colon) was greater than 100 µM and the GI50 (OVCAR-4 ovarian) was 408 nM. For the same molecule, the TGI (OVCAR-4 ovarian) was greater than 100 µM, the GI50 (RXF 393 renal) was 3.48 µM and the TGI (RXF 393 renal) was greater than 100 µM. For the same molecule, the GI50 (PC-3 prostate) was 4.3 µM, the TGI (PC-3 prostate) was greater than 100 µM and the GI50 (MCF7 breast) was 928 nM. For the same molecule, the TGI (MCF7 breast) was greater than 100 µM and the GI50 (HCT-116 colon) was 371 nM.
